Results taken from patent US20240024228A1, “Apremilast Ophthalmic Compositions” (APRAMITHA INNOVATIONS PRIVATE LIMITED, priority 2020, published 2024).

Experiments:
[1] = Solubility study of Apremilast in surfactants and their combinations; type: physicochemical
Protocol: The solubility of Apremilast was evaluated in various surfactants and their combinations:
About 50 mg of Apremilast (0.05% w/w) was weighed and dissolved in surfactant and or combination of surfactants at different ratios by heating at a temperature below 85° C. After complete solubilization of the Apremilast in the solubilizer matrix, purified water (q.s to 100%) was added, vortexed for 2 minutes and kept aside.

[2] = cited from earlier work
[3] = dissolved by heating below 85° C., water q.s., observed 24 hrs to 1 week

Solubility in combination of surfactants (Tween 80 and Kolliphore E L) with PEG400 [1]: good solubility
Stabilization of API ([1]; PEG400 in combination with Tween 80/Kolliphore E L): stabilized
Surfactant concentration sufficient to stabilise Apremilast ([1]; Tween 80 / kolliphor E. L, 0.001-0.9% w/w of Apremilast): 4 % w/w
Precipitation of Apremilast ([1]; below 2-8% Tween80 / kolliphor E. L concentration): precipitated out
Appearance of solution / prevention of precipitation ([1]; combination of Tween 80 and kolliphor E. L): clear solution
Solubility in Tween 80 [1, 3]: good solubility
Solubility in kolliphor E. L [1, 3]: good solubility
Precipitation of Apremilast ([1]; with 2-8% Tween80 and 2-8% kolliphor E. L): not observed
Precipitation of Apremilast ([1]; with 5% PEG 400 alone): precipitation was observed
SMILES: CCOc1cc([C@@H](CS(C)(=O)=O)N2C(=O)c3cccc(NC(C)=O)c3C2=O)ccc1OC [Apremilast, N-[2-[(1S)-1-(3-ethoxy-4-methoxyphenyl)-2-(methylsulfonyl)ethyl]-1,3-dioxo-2,3-dihydro-1H-isoindol-4-yl]acetamide]
Solubility in polar solvents ([2]; polar solvents): minimal solubility
Solubility in water ([2]; water): insolubility
